Source: the NIST ThermoML archive (doi:10.1021/je049605r)
± gives the expanded uncertainty stated by the source.

Columns and labels:
[1] = refractive index (Na D-line) (dimensionless); details: 293.2 K; 101.33 kPa; Liquid; Standard Abbe refractometry
[2] = 293.2 K; 101.33 kPa; Liquid

| SMILES | refractive index [1] | mass density [2] |
| --- | --- | --- |
| OCC1CCCO1 (stereo unspecified) [2-tetrahydrofurylmethanol] | 1.4525 ± 0.0007 | 1055.1 ± 0.6 kg/m3 |
| C1CCCCC1 [cyclohexane] | 1.4269 ± 0.0007 | 779.3 ± 0.6 kg/m3 |
| Clc1ccccc1 [chlorobenzene] | 1.5244 ± 0.0007 | 1106.2 ± 0.4 kg/m3 |

Results, then the molecule that gave them:

| refractive index [1] | mass density [2] | SMILES |
| --- | --- | --- |
| 1.3326 ± 0.0007 |  | O [water] |
| 1.4648 ± 0.0007 | 963.5 ± 9.6 kg/m3 | OC1CCCCC1 [cyclohexanol] |
| 1.441 ± 0.0007 | 970.3 ± 0.3 kg/m3 | CC(=O)OC1CCCCC1 [cyclohexyl ethanoate] |
